Results from paper PMC6829886, “Inhibition of Non-Small Cell Lung Cancer Cells by Oxy210, an Oxysterol-Derivative that Antagonizes TGFβ and Hedgehog Signaling” (Cells, 2019).

Legend:
[1] = system: TGFβ signaling in NIH3T3-E1 cells; test: TGFβ target gene expression (Q-RT-PCR) in NIH3T3 cells; assay type: cell-based, mouse; conditions: NIH3T3 cells, TGFβ 20 ng/mL
Experimental: Total RNA was extracted with the RNeasy Plus Mini Kit from Qiagen (Hilden, Germany) according to the manufacturer’s instructions. One microgram of RNA was reverse-transcribed using an iScript Reverse Transcription Supermix from Bio-Rad Laboratories (Hercules, CA, USA) to make single-stranded cDNA. The cDNAs were then mixed with Qi SYBR Green Supermix (Bio-Rad) for quantitative RT-PCR assay using a Bio-Rad I-cycler IQ quantitative thermocycler. All PCR samples were prepared in triplicate wells in a 96-well plate. After 40 cycles of PCR, melt curves were examined in order to ensure primer specificity. Fold changes in gene expression were calculated using the ΔΔCt method. Primers used for mouse were as follows: Oaz1 (5′-CCACTGCTTCGCCAGAGAG-3′) and (5′-CCCGGACCCAGGTTACTA-3′), Gli1 (5′- […]-3′ and 5′- GCT GATCCAGCCTAAGGTTCTC-3′), Ptch1 (5′-CCATCGGCGACAAGAACC-3′ and 5′-[…]-3′), Thbs1 (5′-[…]-3′ and 5′-CGGGGATCAGGTTGGCATT-3′), Cryab (5′-[…]-3′ and 5′-[…]-3′), Egr2 (5′-[…]-3′ and 5′-[…]-3′), CTGF (5′-GGGCCTCTTCTGCGATTTC-3′ and 5′-[…]-3′).
Figure 4 Inhibition of ligand-induced Hedgehog and TGFβ signaling in mouse fibroblast cells. NIH3T3 cells were pretreated for 2 h with Oxy210 or various inhibitors as indicated in DMEM containing 5% FBS. Next, cells were treated with CAPAN-1 conditioned medium (CM) in the absence or presence of oxysterols or inhibitors. After 72 h, RNA was extracted and analyzed by Q-RT-PCR for the expression of Hh target genes Gli1 and Ptch1 and normalized to Oaz1 expression (a,b). (c,e) NIH3T3 cells were treated in DMEM containing 0.1% BCS overnight and then pretreated for 2 h with the inhibitors as indicated in DMEM containing 0.1%BCS. The cells were then treated with TGFβ (20ng/mL) in the absence or presence of the compounds. After 48 h, RNA was extracted and analyzed by Q-RT-PCR for the expression of TGFβ target genes as indicated and normalized to Oaz1 expression. (d) NIH3T3 cells cultured in 24 well-plates were transfected with a Smad response element reporter (SBE-Luciferase) plasmid and a pTK-Renilla-Luciferase plasmid. 6 hrs after transfection, cells were treated with the test agents as indicated for 48 hrs. Luciferase activity was measured and normalized to the Renilla luciferase activity. Data from a representative experiment are reported as the mean of triplicate determinations ± SD (** p < 0.01 vs. CM (a,b) or TGFβ (c,d and e) treated cells; ## p < 0.01 vs. control).

[2] = system: Gli responsive luciferase reporter (endogenous Gli); test: Gli responsive luciferase reporter in Sufu-/- cells; assay type: cell-based, mouse; conditions: 72 hrs
Experimental: NIH3T3-E1 cells cultured in 24 well-plates at 90% confluence were transiently transfected with 0.1 μg of Smad response-element reporter (SBE-Luciferase) plasmid (Qiagen), or with 0.1 μg of Gli response-element reporter (pGL3b-8xGli-Luciferase) plasmid, and 10 ng of pSV40-Renilla-Luciferase plasmid (Promega, Madison, WI, USA) with or without co-transfection with 10ng of Gli1 overexpression vector, pSRα-Gli1 using a Lipofectamine LTX Plus transfection reagent, as previously described. Sufu-/- cells cultured in 24 well-plates at 90% confluence were transiently transfected with 0.1μg of pGL3b-8xGli-Luciferase plasmid, and 10 ng of pSV40-Renilla-Luciferase plasmid. 6 hrs after transfection, cells were treated with test agents for 72 h. […] Then the firefly and Renilla luciferase activities were measured using a dual luciferase kit (Promega) and a GloMax-96 Microplate Luminometer (Promega) or a plate reader-SpectraMax iD3 (Molecular Devices, San Jose, CA, USA). […]
Figure 5 Oxy210 acts downstream of Smo. […] After 72 h, RNA was extracted and analyzed by Q-RT-PCR for the expression of Hh target genes Gli1 and Hip, normalized to Oaz1 expression. […] Luciferase activity was measured and normalized to the Renilla luciferase activity. […]

[3] = Dose escalation study with repeated once daily oral dosing for 7 days in mice; assay type: in vivo; conditions: once daily oral 50, 200 and 400 mg/kg for 7 days
Experimental: In an initial assessment of drug-like properties of Oxy210, we performed a pharmacokinetic (PK) study in mice. Oxy210, formulated in 3% DMSO + 7% Ethanol + 5% PEG400 + 85% corn oil, was administered to balb/c mice by oral gavage as a single dose of 50 mg/kg. Plasma samples were taken at 10 min, 30 min, 1 h, 2 h, 4 h, and 8h, followed by LC/MS analysis. […] Additional PK studies in mice were performed with Oxy210 in a dose escalation study with repeated once daily oral dosing (50 mg/kg, 200 mg/kg and 400 mg/kg) for 7 days.

Liver X Receptor (LXR) = assay type: cell-based, human

C[C@]12CC[C@H]3[C@@H](CC=C4C[C@@H](O)CC[C@@]43C)[C@@H]1CC[C@@H]2[C@](C)(O)CCc1cccnc1 [Oxy210, (3S,8S,9S,10R,13S,14S,17S)-17-((R)-2-hydroxy-4-(pyridin-3-yl)butan-2-yl)-10,13-dimethyl-2,3,4,7,8,9,10,11,12,13,14,15,16,17-tetradecahydro-1H-cyclopenta[a]phenanthren-3-ol]
expression of TGFβ target genes CTGF, Egr2, Thbs1 and Cryab ([1]; 48 h): strongly inhibited | expression of CTGF induced by TGFβ ([1]; 48 h (Figure 4e)): robustly inhibited | activity of Gli responsive luciferase reporter [2]: significantly inhibited | PK linearity [3]: linear PK parameters and exposure | tolerability [3]: well tolerated and apparently safe | induced expression of SREB1c (Liver X Receptor (LXR)): lack of induced expression
